The target of one experiment is T1, mouse TRPA1 (mTRPA1) (Mus musculus, UniProt Q8BLA8).
T1 construct: host or cells: HEK293 (ATCC CRL-1573), transient transfection
Description: FLIPR calcium signaling assay in mTRPA1-transfected HEK293 cells. The class given is cell-based. The following applies: Schild plot against ASP7663-induced calcium influx, mTRPA1. The method, then:
HEK293 cells (#CRL-1573, ATCC, VA, USA) were cultured in DMEM media (#11995-065, Sigma-Aldrich, MO, USA) with 10% Fetal Bovine Serum (#F0926-500ML, Thermo Fisher, MA, USA). The cells were maintained in a 37 °C incubator with consistent 5% CO2. They were seeded in a clear 6 well flat bottom cell culture plates (#07-200-83, Corning ®, Thermo Fisher) with 500,000 cells/2 ml/well for transfection, in serum-free Opti-MEM (#31985070, Gibco®, Thermo Fisher). These cells were transfected with pcDNA3.1-mTRPA1 (#MR227099, OriGene, MD, USA), pcDNA3.1-zTRPA1a, or pcDNA3.1-zTRPA1b (a gift from Dr. David Prober) using X-tremeGENE^TM 9 (#6365809001, Sigma-Aldrich). After 24 hours, the transfected cells were dislodged with trypsin, resuspended in Opti-MEM, and seeded 25,000 cells/25 µl/well in 384-well black polystyrene microplates (#82051-296, VWR, PA, USA) for testing calcium signaling the following day. Experiments were carried out with the approval of the Institutional Biohazard Committee (#13-013-16).
Twenty-five µl calcium sensitive Fluorescent Imaging Plate Reader (FLIPR) Calcium 6 assay dye (#R8190, Molecular Devices, CA, USA) was added to each well of a 384-well plate containing HEK293 cells transiently expressing mTRPA1, zTRPA1a, and zTRPA1b, respectively. The cells were incubated for an hour prior to the recording of intracellular calcium levels in a FlexStation3 Multi-Mode Microplate Reader (#R8190, Molecular Devices) as previously described. All compounds were diluted in calcium buffer made with 1x HBSS (#14025-092, Thermo Fisher), 20 mM HEPES (#15630-080, Thermo Fisher), and 2.5 mM Probenecid (#P8761, Sigma-Aldrich). For agonist studies, ASP7663 (#5178, Tocris, Bristol, UK) was diluted in 1% DMSO-containing calcium buffer at desired concentrations and was added during the recording. The TRPA1 antagonists HC-030031 (#2896, Tocris), TCS-5861528 (#3938, Tocris), and A-967079 (#4716, Tocris) were diluted in calcium buffer, and 5 µl of 10x solutions were added 10 minutes prior to the recording. The same amount of DMSO (1%) was added to all control groups to maintain similar DMSO levels with the experimental groups. During the assay, the cells were challenged by a 5x ASP7663 solution or 1% DMSO solution at the 20 seconds time point, and both solutions were diluted in calcium buffer. Relative fluorescence units (RFU) were measured for 120 seconds period by the Flexstation. Area under the curve (AUC) was further evaluated from individual calcium influx data (Supplemental Figs 2 and 4) to plot does-response curve of antagonists. For each specific antagonist concentration we plotted Log(dose ratio-1) against the antagonist concentration in a Schild plot. The dose ratio (A’/A) equals the EC50 of the agonist ([…]) in the presence of a concentration of the antagonist (A’) divided by the EC50 of the agonist in the absence of antagonist (A). The x-intercept of the Schild plot was used to identify the antagonist-receptor affinity (pA2).
All data are presented as means ± standard error of the mean (SEM). For our in vitro statistical analysis, AUC of calcium influx (RFU) was measured to plot dose-response curves, which were further analyzed by nonlinear regression analysis. Mean RFU of the first 10 seconds was used as a baseline of the AUC. EC50 values of the dose-response curves were further used to plot Schild curves, and the curves were analyzed with linear regression analysis. For the mice von Frey test, mechanical thresholds were analyzed with two-way ANOVA followed by a Bonferonni test for multiple comparison analysis. For the zebrafish behavior test, the data from the first five seconds following drug administration were excluded, as zebrafish displacement during that period was highly influenced by liquid dispensing. AUC of all curves were measured and analyzed by one-way ANOVA. The post-hoc analysis was conducted with the Tukey’s or Dunnett’s multiple comparisons unless it stated otherwise. […]

A further experiment relates to rat TRPA1. Details: method as in PMID 21402443. The following applies: cited from earlier work.

Molecules are shown by their SMILES.

Usually pA2 stands for the negative logarithm of the molar antagonist concentration that doubles the agonist concentration needed for the same response. As a reminder, the IC50 is the concentration that inhibits the measured activity by half.

T1 sequence (Q8BLA8 whole entry): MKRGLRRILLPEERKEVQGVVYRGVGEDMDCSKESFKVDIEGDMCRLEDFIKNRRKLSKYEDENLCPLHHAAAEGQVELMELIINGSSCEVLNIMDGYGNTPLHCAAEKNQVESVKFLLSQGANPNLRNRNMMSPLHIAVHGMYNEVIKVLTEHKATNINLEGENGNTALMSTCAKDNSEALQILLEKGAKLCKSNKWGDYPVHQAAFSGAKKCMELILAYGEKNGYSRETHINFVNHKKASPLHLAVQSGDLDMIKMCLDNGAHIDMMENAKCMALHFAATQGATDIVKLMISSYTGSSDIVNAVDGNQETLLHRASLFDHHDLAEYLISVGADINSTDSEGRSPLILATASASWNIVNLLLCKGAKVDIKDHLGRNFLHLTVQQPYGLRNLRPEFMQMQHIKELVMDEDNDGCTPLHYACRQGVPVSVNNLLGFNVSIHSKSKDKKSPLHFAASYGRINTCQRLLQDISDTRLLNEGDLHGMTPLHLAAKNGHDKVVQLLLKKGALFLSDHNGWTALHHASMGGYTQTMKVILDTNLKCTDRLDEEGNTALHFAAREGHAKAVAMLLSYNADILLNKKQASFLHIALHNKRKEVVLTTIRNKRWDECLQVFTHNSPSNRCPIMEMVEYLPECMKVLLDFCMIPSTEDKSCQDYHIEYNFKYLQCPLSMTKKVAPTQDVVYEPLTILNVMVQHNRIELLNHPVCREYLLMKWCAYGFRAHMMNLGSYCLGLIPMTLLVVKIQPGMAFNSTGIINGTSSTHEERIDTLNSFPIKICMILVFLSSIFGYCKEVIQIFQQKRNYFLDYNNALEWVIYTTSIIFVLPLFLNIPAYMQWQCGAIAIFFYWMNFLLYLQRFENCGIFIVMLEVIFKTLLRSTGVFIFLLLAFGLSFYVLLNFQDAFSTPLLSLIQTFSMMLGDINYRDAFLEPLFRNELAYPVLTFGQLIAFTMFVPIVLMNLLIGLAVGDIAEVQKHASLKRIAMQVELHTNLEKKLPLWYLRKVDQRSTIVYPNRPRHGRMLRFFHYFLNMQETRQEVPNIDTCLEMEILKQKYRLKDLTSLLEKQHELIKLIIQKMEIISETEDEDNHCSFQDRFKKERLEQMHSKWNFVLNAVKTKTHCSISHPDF

For the compound `CCC(C)c1ccc(NC(=O)Cn2cnc3c2c(=O)n(C)c(=O)n3C)cc1` (stereo not drawn) [TCS-5861528], at mouse TRPA1 (mTRPA1), the pA2 is 5.34 ± 0.2 and the “pA2 expressed in µM” value came out at 4.6 µM.
With `CCC(=N\O)/C(C)=C/c1ccc(F)cc1` [A-967076], in the experiment with rat TRPA1, the IC50 is 289 nM and the “fold stronger than HC-030031” value was “about 25 fold”. For the same compound, at mouse TRPA1 (mTRPA1), the pA2 was found to be 7.0 ± 0.3 and the “pA2 expressed in µM” value was found to be 0.09 µM.

These data come from paper PMC6382835, “A critical evaluation of TRPA1-mediated locomotor behavior in zebrafish as a screening tool for novel anti-nociceptive drug discovery” (Scientific Reports, 2019).
